# US10517867B2, “Posaconazole derivative, pharmaceutical composition and use thereof” (priority 2016, dated 2019)
# Where two headings read alike, the source gives them in different places.
# Columns and labels:
# [1] = system: Aspergillus Fumigutus (AF) strains; experiment: Aspergillus fumigatus keratitis in rats, intravenous administration; settings: 10 mg/kg tail vein once daily for 5 days; mean ± SD of 10 rats
# [2] = Determination of solubility in deionized water (HPLC, external standard); settings: 25 °C, water, thermodynamic from solid
# [3] = system: Aspergillus fumigatus AF293; experiment: Lung Aspergillus fumigatus infection in immunosuppressed mice, intravenous administration; settings: for responders at 20 mg/kg: Aspergillus fumigatus, AF293, in Mus musculus, iv; for lung fungal load: mouse lung tissue, seven days later, 20 mg/kg tail vein once daily for 5 days, mean ± SD
# Method: ICR male mice were injected intraperitoneally with cyclophosphamide 150 mg/kg and injected subcutaneously with dexamethasone 150 mg/kg for 10 consecutive days. At the same time, the blood was taken to measure the changes of peripheral white blood cells and neutrophils, and mice with neutrophils consistently lower than 100/μl were selected as successfully immunosuppressed mice. Immediately after the last injection, the mice were anesthetized with ethyl ether, and mice were transferred from the initial state of excitement to inhibition. After their bodies were relaxed, the mice were immediately taken. Left hand was used to grasp the mouse to make it stand upright, the middle finger pressed the mouth so that it could breath only with the nose, and the ring finger gently pressed the abdomen to move the diaphragm muscle upward. 30 μl of conidia suspension (Aspergillus fumigatus AF293, 3×10^6 conidia) was sent to the nostrils of the anesthetized mice by a micropipette to allow spontaneous inhalation. After the mouse returned to normal breathing, it was returned to the cage. […] The death of the mice was observed and the survival time was recorded. Seven days later, the mice were sacrificed and their lung tissues were taken to observe the fungal loads of Aspergillus fumigatus in the lungs of the mice.
# [4] = In vitro metabolic stability in human plasma; assay type: in vitro ADME; settings: human, plasma, 37° C., 10 μM compound, read-out: Human plasma T1/2
# Method: (§1) This example detects the metabolic stability of the compounds of the present disclosure in human (rat) plasma and intestinal S9 in vitro. In a human (rat) plasma reaction system, 990 μl of human (rat) plasma was taken and incubated at 37° C. for 5 minutes, and 10 μl of the compound mother liquor was used to initiate the reaction. In the human (rat) intestinal S9 stability experiment, in the order shown in Table 2 below, the samples were added and incubated in a 37° C. water bath to initiate the reaction, each sample performed in triplicates. Respectively, at 1 minute, 2 minutes, 5 minutes, 15 minutes, 30 minutes after the reaction began, 100 μL of each was taken and added to a centrifuge tube containing 400 μL of 0° C. precooled internal standard working solution. The reaction was terminated, vortexed and mixed for 1 minute, centrifuged at 10000×g for 10 minutes in a 4° C. precooled high-speed centrifuge, and the supernatant was detected with HPLC. The test results were used to calculate metabolic half-life using WinNonlin (version 6.2 Pharsight, Mountain View, Calif.) with a non-compartmental model.
# (§2) Compound stock solution concentration: 1 mM
# (§3) Reaction matrix: human (rat) plasma, intestinal S9 purchased from Research Institute for Liver Diseases (Shanghai) Co., Ltd.
# [5] = In vitro metabolic stability in human intestine S9; assay type: in vitro ADME; settings: human, intestinal S9; 37° C., 10 μM compound, 1 mg/mL S9, NADPH regeneration system; read-out: Human intestine S9 T1/2
# Method: as §1, §2, §3
# [6] = In vitro metabolic stability in rat plasma; assay type: in vitro ADME; settings: rat, plasma, 37° C., 10 μM compound, read-out: Rat plasma T1/2
# Method: as §1, §2, §3
# [7] = In vitro metabolic stability in rat intestine S9; assay type: in vitro ADME; settings: rat, intestinal S9, pH 7.4; 37° C., 10 μM compound, 1 mg/mL S9, NADPH regeneration system; read-out: Rat intestine S9 T1/2
# Method: as §1, §2, §3
# [8] = Solid stability test (stability chamber, HPLC total impurity); assay type: physicochemical
# [9] = system: Candida albicans ATCC10231; experiment: Systemic fungal infection in mice, intravenous administration; assay type: in vivo, ICR mice
# Method: (§4) ICR mice, weighing 18-22 g, male, provided by Hubei Experimental Animal Center.
# (§5) Prior to the experiment, a small amount of Candida albicans was picked from an SDA (sacharomyces agar, the same below) medium kept at 4° C. with an inoculation loop and inoculated into 1 ml YPD (Yeast Extract Peptone Dextrose Medium) culture medium, cultured at 30° C. with 200 rpm shaking and activated for 16 hours, so that the fungus was in the late stage of exponential growth. Counted with a hemocytometer and the fungal solution concentration was adjusted to 1×10^3-5×10^3 CFU/ml with RPMI1640 medium (Roswell Park Memorial Institute 1640, the same below). Monoclonal Candida albicans on SDA plate was picked up, inoculated into 1 ml YPD (Yeast Extract Peptone Dextrose Medium, the same below) culture medium, cultured at 35° C., 200 rpm for 16 hours until late exponential growth phase. Candida albicans was inoculated into fresh medium for culturing for 6 hours at 1%, centrifuged at 1000×g for 5 minutes, washed with physiological saline three times until the supernatant was colorless, counted with a hemocytometer, and the cell concentration was adjusted to 5×10^6 cells/ml. A tail vein injection of 0.1 ml/10 g caused a systemic fungal infection in mice. […] A total of 7 days of observations were performed. All dead mice were burned with ethanol.
# [10] = system: Candida albicans ATCC10231; experiment: Systemic fungal infection in mice, intragastric administration; assay type: in vivo, ICR mice; settings: Candida albicans, ATCC10231, po
# Method: as §4
# as §5, with “SDA” for “SDA (sacharomyces agar, the same below)”, “YPD” for “YPD (Yeast Extract Peptone Dextrose Medium)”, “1×10^3 to 5×10^3” for “1×10^3-5×10^3”, “medium.” for “medium (Roswell Park Memorial Institute 1640, the same below).”
# [11] = 24 h, read-out: survival rate of mice, day 1, 20 mg/kg tail vein once daily for 5 days, day 1
# [12] = 48 h, read-out: survival rate of mice, day 2, 20 mg/kg tail vein once daily for 5 days, day 2
# [13] = 72 h, read-out: survival rate of mice, day 3, 20 mg/kg tail vein once daily for 5 days, day 3
# [14] = 96 h, read-out: survival rate of mice, day 4, 20 mg/kg tail vein once daily for 5 days, day 4
# [15] = 120 h, read-out: survival rate of mice, day 5, 20 mg/kg tail vein once daily for 5 days, day 5
# [16] = 144 h, read-out: survival rate of mice, day 6, 20 mg/kg tail vein once daily for 5 days, day 6
# [17] = 168 h, read-out: survival rate of mice, day 7, 20 mg/kg tail vein once daily for 5 days, day 7
# [18] = 24 h, read-out: survival rate of mice, day 1
# [19] = 48 h, read-out: survival rate of mice, day 2
# [20] = 72 h, read-out: survival rate of mice, day 3
# [21] = 96 h, read-out: survival rate of mice, day 4
# [22] = 120 h, read-out: survival rate of mice, day 5
# [23] = 144 h, read-out: survival rate of mice, day 6
# [24] = 168 h, read-out: survival rate of mice, day 7
# [25] = 24 h, read-out: survival rate of mice, day 1, 20 mg/kg intragastric once daily for 5 days, day 1
# [26] = 48 h, read-out: survival rate of mice, day 2, 20 mg/kg intragastric once daily for 5 days, day 2
# [27] = 72 h, read-out: survival rate of mice, day 3, 20 mg/kg intragastric once daily for 5 days, day 3
# [28] = 96 h, read-out: survival rate of mice, day 4, 20 mg/kg intragastric once daily for 5 days, day 4
# [29] = 120 h, read-out: survival rate of mice, day 5, 20 mg/kg intragastric once daily for 5 days, day 5
# [30] = 144 h, read-out: survival rate of mice, day 6, 20 mg/kg intragastric once daily for 5 days, day 6
# [31] = 168 h, read-out: survival rate of mice, day 7, 20 mg/kg intragastric once daily for 5 days, day 7
SMILES,Amount of active fungi in cornea at day 7 [1],solubility at 30 min [2],"responders at 20 mg/kg [3, 11]","responders at 20 mg/kg [3, 12]","responders at 20 mg/kg [3, 13]","responders at 20 mg/kg [3, 14]","responders at 20 mg/kg [3, 15]","responders at 20 mg/kg [3, 16]",half-life at 10 µM [4],half-life at 10 µM [5],half-life at 10 µM [6],half-life at 10 µM [7],Total impurity increment in 30 days [8],"responders at 20 mg/kg [10, 25]","responders at 20 mg/kg [10, 26]","responders at 20 mg/kg [10, 27]","responders at 20 mg/kg [10, 28]","responders at 20 mg/kg [10, 29]","responders at 20 mg/kg [10, 30]","responders at 20 mg/kg [10, 31]",also measured
CCC([C@H](C)OC(=O)C(O)C(O)COP(=O)(O)O)n1ncn(-c2ccc(N3CCN(c4ccc(OC[C@@H]5CO[C@@](Cn6cncn6)(c6ccc(F)cc6F)C5)cc4)CC3)cc2)c1=O (stereo partly drawn) [ST0001],3.73 ± 0.63 10^3 CFU/ml,47.7 mg/mL,100%,100%,90%,90%,80%,70%,–,–,–,–,–,–,–,–,–,–,–,–,"responders at 20 mg/kg [3, 17]: 70%; lung fungal load [3]: 2.28 ± 0.77 10^4 CFU/ml"
CC[C@@H]([C@H](C)O)n1ncn(-c2ccc(N3CCN(c4ccc(OC[C@@H]5CO[C@@](Cn6c[n+](C(C)OC(=O)N(C)c7ncccc7COC(=O)C[C@H](N)C(=O)O)cn6)(c6ccc(F)cc6F)C5)cc4)CC3)cc2)c1=O (stereo partly drawn) [ST0004],5.58 ± 1.12 10^3 CFU/ml,> 50 mg/mL,100%,90%,80%,80%,70%,60%,–,–,–,–,–,–,–,–,–,–,–,–,"responders at 20 mg/kg [3, 17]: 50%; lung fungal load [3]: 3.51 ± 1.38 10^4 CFU/ml"
CC[C@@H]([C@H](C)O)n1ncn(-c2ccc(N3CCN(c4ccc(OC[C@@H]5CO[C@@](Cn6c[n+](C(C)OC(=O)N(C)c7ncccc7COC(=O)CCC(=O)O)cn6)(c6ccc(F)cc6F)C5)cc4)CC3)cc2)c1=O (stereo partly drawn) [ST0005],5.90 ± 1.06 10^3 CFU/ml,> 50 mg/mL,100%,90%,80%,80%,70%,60%,–,–,–,–,–,–,–,–,–,–,–,–,"responders at 20 mg/kg [3, 17]: 50%; lung fungal load [3]: 3.40 ± 1.26 10^4 CFU/ml"
CC[C@@H]([C@H](C)O)n1ncn(-c2ccc(N3CCN(c4ccc(OC[C@@H]5CO[C@@](Cn6c[n+](C(C)OC(=O)N(C)c7ncccc7COC(=O)[C@@H](N)CC(N)=O)cn6)(c6ccc(F)cc6F)C5)cc4)CC3)cc2)c1=O (stereo partly drawn) [ST0023],–,> 50 mg/mL,–,–,–,–,–,–,0.94 ± 0.15 min,15 ± 3.78 min,0.55 ± 0.78 min,16.7 ± 2.96 min,0.42%,100%,100%,90%,90%,90%,80%,80%,"responders at 20 mg/kg [9, 18]: 100%; responders at 20 mg/kg [9, 19]: 100%; responders at 20 mg/kg [9, 20]: 100%; responders at 20 mg/kg [9, 21]: 100%; responders at 20 mg/kg [9, 22]: 100%; responders at 20 mg/kg [9, 23]: 90%; responders at 20 mg/kg [9, 24]: 90%"
CC[C@@H]([C@H](C)O)n1ncn(-c2ccc(N3CCN(c4ccc(OC[C@@H]5CO[C@@](Cn6c[n+](C(C)OC(=O)N(C)c7ncccc7COC(=O)[C@@H](N)CCCCN)cn6)(c6ccc(F)cc6F)C5)cc4)CC3)cc2)c1=O (stereo partly drawn) [ST0024],–,> 50 mg/mL,–,–,–,–,–,–,1.57 ± 0.34 min,12.2 ± 5.9 min,2.51 ± 0.69 min,15.6 ± 5.96 min,0.62%,100%,90%,90%,80%,80%,70%,70%,–
CC[C@@H]([C@H](C)O)n1ncn(-c2ccc(N3CCN(c4ccc(OC[C@@H]5CO[C@@](Cn6c[n+](C(C)OC(=O)N(C)c7ncccc7COC(=O)[C@@H](N)CO)cn6)(c6ccc(F)cc6F)C5)cc4)CC3)cc2)c1=O (stereo partly drawn) [ST0025],–,> 50 mg/mL,–,–,–,–,–,–,0.92 ± 0.03 min,25 ± 4.76 min,1.22 ± 0.85 min,22.5 ± 5.96 min,0.55%,100%,100%,90%,90%,80%,80%,80%,"responders at 20 mg/kg [9, 18]: 100%; responders at 20 mg/kg [9, 19]: 100%; responders at 20 mg/kg [9, 20]: 100%; responders at 20 mg/kg [9, 21]: 100%; responders at 20 mg/kg [9, 22]: 100%; responders at 20 mg/kg [9, 23]: 90%; responders at 20 mg/kg [9, 24]: 90%"
CC[C@@H]([C@H](C)O)n1ncn(-c2ccc(N3CCN(c4ccc(OC[C@@H]5CO[C@@](Cn6c[n+](C(C)OC(=O)N(C)c7ncccc7COC(=O)[C@@H](N)[C@@H](C)O)cn6)(c6ccc(F)cc6F)C5)cc4)CC3)cc2)c1=O (stereo partly drawn) [ST0026],–,> 50 mg/mL,–,–,–,–,–,–,1.03 ± 0.09 min,16.4 ± 7.54 min,2.69 ± 1.21 min,19 ± 5.96 min,0.46%,100%,100%,90%,80%,70%,70%,70%,–
